According to the NIST ThermoML archive (doi:10.1016/j.jct.2009.01.014):
Where “and” joins values, the source holds several entries; their conditions need not be identical. Equal values may be shown once. ± gives the expanded uncertainty stated by the source.

Test: molar heat capacity at constant pressure
Conditions: 101.33 kPa, Crystal 1, Vacuum adiabatic calorimetry

[Al+3].[Al+3].[Co+2].[O-2].[O-2].[O-2].[O-2] [aluminium cobalt oxide]
Conditions | molar heat capacity at constant pressure
264.3 K | 110.3 ± 0.49 J/K/mol
266.6 K | 111.11 ± 0.5 J/K/mol
267.21 K | 111.27 ± 0.5 J/K/mol
268.89 K | 111.88 ± 0.5 J/K/mol
270 K | 112.21 ± 0.5 J/K/mol
270.34 K | 112.32 ± 0.5 J/K/mol
271.18 K | 112.63 ± 0.5 J/K/mol
273.45 K | 113.32 ± 0.5 J/K/mol and 113.36 ± 0.5 J/K/mol
275.72 K | 114.12 ± 0.51 J/K/mol
276.55 K | 114.32 ± 0.51 J/K/mol
277.98 K | 114.86 ± 0.51 J/K/mol
279.64 K | 115.3 ± 0.51 J/K/mol
280 K | 115.49 ± 0.51 J/K/mol
280.23 K | 115.61 ± 0.51 J/K/mol
282.47 K | 116.23 ± 0.52 J/K/mol
282.71 K | 116.25 ± 0.52 J/K/mol
284.71 K | 117.01 ± 0.52 J/K/mol
285.76 K | 117.27 ± 0.52 J/K/mol
286.94 K | 117.64 ± 0.52 J/K/mol
288.8 K | 118.11 ± 0.52 J/K/mol
289.16 K | 118.27 ± 0.52 J/K/mol
290 K | 118.56 ± 0.53 J/K/mol
291.38 K | 118.88 ± 0.53 J/K/mol
291.83 K | 118.87 ± 0.53 J/K/mol
293.59 K | 119.39 ± 0.53 J/K/mol
294.84 K | 119.71 ± 0.53 J/K/mol
295.8 K | 120.14 ± 0.53 J/K/mol
297.85 K | 120.6 ± 0.53 J/K/mol
298 K | 120.75 ± 0.53 J/K/mol
298.15 K | 120.8 ± 0.53 J/K/mol
300 K | 121.29 ± 0.54 J/K/mol
300.19 K | 121.32 ± 0.54 J/K/mol
300.84 K | 121.4 ± 0.54 J/K/mol
302.38 K | 121.76 ± 0.54 J/K/mol
304.56 K | 122.44 ± 0.54 J/K/mol
306.74 K | 123.1 ± 0.54 J/K/mol
308.91 K | 123.82 ± 0.55 J/K/mol
310 K | 124.03 ± 0.55 J/K/mol
311.08 K | 124.21 ± 0.55 J/K/mol
314.58 K | 125.39 ± 0.55 J/K/mol
316.31 K | 125.57 ± 0.55 J/K/mol
318.27 K | 126.1 ± 0.55 J/K/mol
320 K | 126.56 ± 0.56 J/K/mol
320.27 K | 126.63 ± 0.56 J/K/mol
322.26 K | 127.06 ± 0.56 J/K/mol
324.24 K | 127.71 ± 0.56 J/K/mol
326.23 K | 128.15 ± 0.56 J/K/mol
328.22 K | 128.71 ± 0.56 J/K/mol
330 K | 129.18 ± 0.57 J/K/mol
330.21 K | 129.23 ± 0.57 J/K/mol
332.21 K | 129.58 ± 0.57 J/K/mol
334.2 K | 130.14 ± 0.57 J/K/mol
336.19 K | 130.48 ± 0.57 J/K/mol
338.18 K | 131.04 ± 0.57 J/K/mol
340 K | 131.5 ± 0.58 J/K/mol
340.18 K | 131.54 ± 0.58 J/K/mol
342.17 K | 132 ± 0.58 J/K/mol
344.16 K | 132.51 ± 0.58 J/K/mol
346.15 K | 132.95 ± 0.58 J/K/mol
348.15 K | 133.41 ± 0.58 J/K/mol
350 K | 133.79 ± 0.58 J/K/mol
350.14 K | 133.82 ± 0.59 J/K/mol
352.14 K | 134.31 ± 0.59 J/K/mol
354.14 K | 134.84 ± 0.59 J/K/mol
356.13 K | 135.27 ± 0.59 J/K/mol
358.13 K | 135.71 ± 0.59 J/K/mol
360 K | 136.1 ± 0.59 J/K/mol
360.13 K | 136.12 ± 0.59 J/K/mol
362.13 K | 136.47 ± 0.6 J/K/mol
364.13 K | 136.92 ± 0.6 J/K/mol
366.13 K | 137.31 ± 0.6 J/K/mol
368.13 K | 137.72 ± 0.6 J/K/mol
370 K | 138.26 ± 0.6 J/K/mol
370.14 K | 138.29 ± 0.6 J/K/mol
372.14 K | 138.51 ± 0.6 J/K/mol
374.14 K | 138.93 ± 0.61 J/K/mol
376.14 K | 139.33 ± 0.61 J/K/mol
378.15 K | 139.67 ± 0.61 J/K/mol
380 K | 140.09 ± 0.61 J/K/mol
380.15 K | 140.12 ± 0.61 J/K/mol
382.16 K | 140.49 ± 0.61 J/K/mol
384.17 K | 140.86 ± 0.61 J/K/mol
386.17 K | 141.18 ± 0.61 J/K/mol
388.18 K | 141.53 ± 0.62 J/K/mol
390 K | 141.96 ± 0.62 J/K/mol
390.19 K | 142 ± 0.62 J/K/mol
392.2 K | 142.2 ± 0.62 J/K/mol
394.22 K | 142.53 ± 0.62 J/K/mol
396.23 K | 142.78 ± 0.62 J/K/mol
398.24 K | 143.19 ± 0.62 J/K/mol
400.25 K | 143.52 ± 0.62 J/K/mol
